This note sets out measurements from US8728977B2, “Herbicidal combinations comprising tefuryltrione for use in rice crops” (Bayer Cropscience AG, priority 2009, dated 2014).

Each structure is given as a SMILES string. Where two headings read alike, the source gives them in different places.

The test system of this test is LEFCH (Leptochloa chinensis). The experiment in a line: Post-emergence action against LEFCH (greenhouse pot test, visual evaluation). It counts as in vivo. The settings on record: for pest or weed control at 50 g/ha: read-out: Action against LEFCH. Here is the method:
The herbicidal activity of the active substances or active substance mixtures was evaluated visually from the treated variants in comparison with untreated control variants. In this connection, damage to and development of all plant parts above ground was included. The evaluation was carried out according to a percentage scale (100% action=all plants dead; 50% action=50% of the plants and green plant parts dead; 0% action=no recognizable action=as untreated control plot).
Seeds or root pieces of mono- and dicotyledonous weeds are placed in sandy clay soil in pots, covered with earth and secured in a greenhouse under good growing conditions (temperature, air humidity, water supply). Approximately three weeks after sowing, the test plants are treated with the compositions according to the invention. The compositions according to the invention formulated as wettable powders or as emulsion concentrates are sprayed, in spray application, on to the green plant parts in different dosages with a water application rate of 600 to 800 I/ha (corrected). Immediately up to a few days after application, the test receptacles accumulate water over the ground surface by up to 30 mm. With the water application (submerged application), on the other hand, the ground in the closed test receptacle is already covered with the paddy water up to 30 mm at the time of the application. The formulated active substances are here added directly to the paddy water. After an exposure time of the test plants in the greenhouse of an additional 3 to 4 weeks under optimum growing conditions, the effect of the preparations is evaluated visually in comparison with untreated controls. […] In this connection, actions of the combinations according to the invention which exceed the formal sum of the actions of the herbicides when applied individually are frequently observed. The values observed for the tests show, with suitable low dosages, an action of the combinations which lies above the expected values according to Colby.
If the observed activity values already exceed the formal sum of the values for the tests with individual applications, then they likewise exceed the expected value according to Colby, which is calculated according to the following formula and is likewise regarded as an indication of synergy (cf. S. R. Colby in Weeds, 15 (1967), pp. 20 to 22):
[formula] In this connection: • A, B=action of the component A or B in percent at a dosage of a or b grams ai/ha. • E=expected value in % at a dosage of a+b grams ai/ha.
The abbreviation LEFCH is the harmful plant Leptochloa chinensis.

[1] abbreviates: dosage 12.5 g/ha, single herbicide.
[2] abbreviates: dosage 50 g/ha, single herbicide.
Setting [3] is: Dinebra chinensis, dosage 50 g/ha, single herbicide.
Where [4] appears, read: dosage 2.5 g/ha, single herbicide.
Where [5] appears, read: dosage 75 g/ha, single herbicide.

`CC(C)c1nn(C(=O)NC(C)(C)C)c(=O)n1N` [Compound B1, amicarbazone]: the “Action against LEFCH” value under setting [1] was found to be 10%. Regarding `Nc1cc(Cl)nc(C(=O)O)c1Cl` [Compound B2, aminopyralid], for the setting “dosage 7.5 g/ha, single herbicide”, the “Action against LEFCH” value is 30%. Turning to `COC(=O)c1nc(C2CC2)nc(N)c1Cl` [Compound B3, aminocyclopyrachlor-methyl], the “Action against LEFCH” value under setting [2] is on record as 10%. In the case of `COc1cc(OC)nc(NC(=O)NS(=O)(=O)Nc2ccccc2C(=O)C2CC2)n1` [Compound B4, cyclosulfamuron], under setting [3], the pest or weed control at 50 g/ha was determined as 20%. As to `Cc1ccc2c(c1)[C@H](Nc1nc(N)nc(C(C)F)n1)[C@@H](C)C2` (stereo partly shown) [Compound B5, indaziflam], under setting [4], the “Action against LEFCH” value was 25%. For `COCC(=O)OC(c1ncccc1S(=O)(=O)NC(=O)Nc1nc(OC)cc(OC)n1)C(C)F` (stereo not shown) [Compound B6, flucetosulfuron], the “Action against LEFCH” value under setting [4] turned out to be 20%. Consider `CC(C)N(C(=O)n1cnn(-c2ccc(Cl)cc2Cl)c1=O)c1ccc(F)cc1F` [Compound B7, ipfencarbazone], for which the “Action against LEFCH” value under setting [2] stood at 25%. For `C[C@@H](Oc1ccc(Oc2nc3ccc(Cl)cc3o2)cc1)C(=O)N(C)c1ccccc1F` [Compound B8, metamifop], the “Action against LEFCH” value under setting [5] is recorded as 15%. Take `COc1cc(OC)nc(NC(=O)NS(=O)(=O)Nc2ccccc2C(=O)N(C)C)n1` [Compound B9, orthosulfamuron]: the “Action against LEFCH” value (dosage 30 g/ha, single herbicide) came to 40%.

Consider `COc1cnc(OC)n2nc(NS(=O)(=O)c3c(OCC(F)F)cccc3C(F)(F)F)nc12` [Compound B10, penoxsulam], for which the pest or weed control at 15 g/ha (Dinebra chinensis, dosage 15 g/ha, single herbicide) was determined as 20%. With `CCc1cc(C)cc(CC)c1-c1c(OC(=O)C(C)(C)C)n2n(c1=O)CCOCC2` [Compound B11, pinoxaden], for the setting “Dinebra chinensis, dosage 10 g/ha, single herbicide”, the pest or weed control at 10 g/ha was 15%. As to `CCCc1ccc2nc(Cl)c(S(=O)(=O)NC(=O)Nc3nc(OC)cc(OC)n3)n2n1` [Compound B12, propyrisulfuron], the “Action against LEFCH” value under setting [2] was determined as 30%.

Regarding `C#CCN(C)c1c(C#N)cnn1-c1nn2c(c1Cl)CCCC2` [Compound B13, pyraclonil], under setting [5], the “Action against LEFCH” value is 30%.

Turning to `Cc1nn(C)c(O)c1C(=O)c1ccc(C(F)(F)F)cc1S(C)(=O)=O` [Compound B14, pyrasulfotole], the “Action against LEFCH” value under setting [1] was found to be 30%. For `COCc1cccc(C(O)c2nc(OC)cc(OC)n2)c1NS(=O)(=O)C(F)F` (stereo not shown) [Compound B15, pyrimisulfan], the “Action against LEFCH” value under setting [2] turned out to be 20%.

Consider `Cn1nc(C(F)(F)F)c(CS(=O)(=O)C2=NOC(C)(C)C2)c1OC(F)F` [Compound B17, pyroxasulfone], for which the pest or weed control at 7.5 g/ha (Dinebra chinensis, dosage 7.5 g/ha, single herbicide) stood at 15%.

Turning to `COc1cc(OC)n2nc(NS(=O)(=O)c3c(C(F)(F)F)ccnc3OC)nc2n1` [Compound B18, pyroxsulam], the “Action against LEFCH” value (dosage 15 g/ha, single herbicide) is listed as 20%.

With `CC(C)N(C)S(=O)(=O)NC(=O)c1cc(-n2c(=O)cc(C(F)(F)F)n(C)c2=O)c(F)cc1Cl` [Compound B19, saflufenacil], the pest or weed control at 3 g/ha (Dinebra chinensis, dosage 3 g/ha, single herbicide) was 8%. As for `COc1cc(OC)nc(NC(=O)NS(=O)(=O)c2c(C3=NOCC(C)O3)c(Cl)nn2C)n1` (stereo not shown) [Compound B20, 3-chloro-N-[(4,6-dimethoxypyrimidin-2-yl)carbamoyl]-1-methyl-4-(5-methyl-5,6-dihydro-1,4,2-dioxazin-3-yl)-1H-pyrazole-5-sulfonamide], the pest or weed control at 50 g/ha under setting [3] came out at 15%. On to `COC(=O)c1nc(-c2ccc(Cl)c(OC)c2F)cc(N)c1Cl` [Compound B22, methyl 4-amino-3-chloro-6-(4-chloro-2-fluoro-3-methoxyphenyl)pyridine-2-carboxylate], for which the pest or weed control at 50 g/ha (Dinebra chinensis) was 10%. On to `COCCOCc1nc(C(F)(F)F)ccc1C(=O)C1C(=O)C2CCC(C2)C1=O` (stereo not shown) [Compound B23, 3-({2-[(2-methoxyethoxy)methyl]-6-(trifluoromethyl)pyridin-3-yl}-carbonyl)bicyclo[3.2.1]octane-2,4-dione], for which the pest or weed control at 12.5 g/ha (Dinebra chinensis, dosage 12.5 g/ha, single herbicide) stood at 25%. With `CS(=O)(=O)c1ccc(C(=O)C2C(=O)CCCC2=O)c(Cl)c1COCC1CCCO1` (stereo not shown) [tefuryltrione], under setting [2], the “Action against LEFCH” value was determined as 20%.
